Key:
[1] = test system: lipase AY 30; assay: Effect of the solvent on lipase AY 30 catalyzed deacylation of SOP; assay type: biochemical, Candida cylindracea; conditions: for ShexaP (4.2 min) / SheptaP's (8.9 min) / SheptaP's (9.4 min) / SheptaP's ([…]): lipase AY 30, 24 hrs; for ShexaP (4.2 min): HPLC peak 4.2 min; for SheptaP's (8.9 min): HPLC peak 8.9 min; for SheptaP's (9.4 min): HPLC peak 9.4 min; for SheptaP's ([…]): HPLC peak […]; for SOA: lipase AY 30, solvent as labelled, 200 mM butanol, 24 hrs, peak 21.4 min; on SheptaP's ([…]): HPLC peak 8.2 min
Experimental: (§1) Identical SOP deacylations were performed with lipase AY 30 or protease type XXIII in numerous anhydrous organic solvents, as shown in Tables 12 and 13.
(§2) Solvent screening for SOP deacylation. A scintillation vial was charged successively with 100 mg of lipase AY 30 or protease type XXIII as described and 1.0 ml of 20 mM sucrose octapropionate (SOP) and 200mM butanol dissolved in an organic solvent. Following a 5 sec sonication, the vial was incubated in a controlled-temperature shaker at 45° C. and 300 RPM for 24 hrs. A 200 μl aliquot of the reaction mixture was withdrawn and centrifuged. The supernatant was collected and evaporated under a stream of N2. The residue was reconstituted in 200 μl of acetonitrile and 10 μl of this solution was analyzed by HPLC.

[2] = test system: protease type XXIII; assay: Effect of the solvent on protease type XXIII catalyzed deacylation of SOP; assay type: biochemical, Aspergillus oryzae; conditions: 24 hrs; for SheptaP's (8.3 min): HPLC peak 8.3 min; for SheptaP's (8.9 min): HPLC peak 8.9 min; for SheptaP's (9.9 min): HPLC peak 9.9 min; for SOP: solvent as labelled
Experimental: as §1, §2

[3] = test system: lipase AY 30; assay: Effect of the solvent on lipase AY 30 SOA deacetylation; assay type: biochemical, Candida cylindracea; conditions: lipase AY 30, solvent as labelled, 24 hrs
Experimental: Identical enzyme catalyzed SOA deacetylations were run in numerous anhydrous solvents. After 24 hrs incubation an aliquot was analyzed by HPLC.
as §2, with “Enzyme and Solvent” for “Solvent”, “Screening” for “screening”, “SOA Deacetylation.” for “SOP deacylation.”, “powdered enzyme as received” for “lipase AY 30”, “prepared” for “protease type XXIII”, “octaacetate (SOA)” for “octapropionate (SOP) and 200mM butanol”

[4] = biological target: T1, alcalase (Bacillus licheniformis, UniProt P00780); assay: Nucleophile screening for alcalase catalyzed deacetylation of SOA in diisopropyl ether; assay type: biochemical; conditions: nucleophile 200 mM, peak height ratio 1'-OH / 6'-OH heptaacetate
T1 construct: purchased Novo Nordisk (gift)
T1 sequence (P00780 106-379): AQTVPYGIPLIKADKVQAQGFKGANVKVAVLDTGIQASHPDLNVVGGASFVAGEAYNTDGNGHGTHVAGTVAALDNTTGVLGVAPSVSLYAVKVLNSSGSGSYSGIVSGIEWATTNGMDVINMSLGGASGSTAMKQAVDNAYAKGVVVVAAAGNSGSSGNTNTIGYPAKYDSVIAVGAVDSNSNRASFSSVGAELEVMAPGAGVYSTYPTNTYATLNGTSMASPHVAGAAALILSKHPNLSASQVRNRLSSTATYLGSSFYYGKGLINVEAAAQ
Experimental: (§3) Nucleophile screening for alcalase, proleather or lipase AP 12 catalyzed deacetylation of SOA. A scintillation vial was charged successively with 100 mg of powdered enzyme prepared as described, 1.0 ml of 20 mM sucrose octaacetate (SOA) and 200 mM of the nucleophile dissolved in diisopropyl ether. Following a 5 sec sonication, the vial was incubated in a controlled-temperature shaker at 45° C. and 300 RPM for 66 hrs. A 200 μl aliquot of the reaction mixture was withdrawn and centrifuged. The supernatant was collected and evaporated under a stream of N2. The residue was reconstituted in 200 μl of acetonitrile and 10 μl of this solution was analyzed by HPLC. For screening concentration effects on enzyme activity, the same protocol was followed except the nucleophile concentration was varied from 0 to 2000 mM.

[5] = test system: lipase AP 12; assay: Nucleophile screening for lipase AP 12 catalyzed deacetylation of SOA in diisopropyl ether; assay type: biochemical, Aspergillus niger; conditions: lipase AP 12, nucleophile 200 mM, 66 hrs
Experimental: as §3

[6] = test system: proleather; assay: Nucleophile screening for proleather catalyzed deacetylation of SOA in diisopropyl ether; assay type: biochemical, Bacillus subtilis; conditions: nucleophile 200 mM
Experimental: as §3

[7] = assay type: physicochemical; conditions: estimated from known log P values / increments
Text: ^a) log P is a measurement of the solvent hydrophobicity (logarithm o
the solvent partition coefficient between noctanol and water [Rekker, "Th
Hydrophobic Fragmental Constant", Elsevier, Amsterdam (1977)]). The log P
values from this table are from Laane et al. , Biotechnol Bioeng. 30,81

[8] = as obtained from supplier; cited from earlier work
[9] = SOP hydrolytic enzyme screen in heptane with n-butanol; assay type: biochemical; conditions: 24 hrs; on SheptaP's ([…]): HPLC peak 8.2 min
Experimental: To extend the scope and utility of this study, sucrose octapropionate was synthesized and used as substrate in enzyme catalyzed deacylation reactions. […] The hydrolytic enzymes were screened for their capability to deacylate SOP in heptane with n-butanol as the nucleophile. After 24 hrs incubation aliquots were analyzed by HPLC.
as §2, with “Enzyme” for “Solvent”, “deacylation in heptane.” for “deacylation.”, “powdered enzyme as received” for “lipase AY 30”, “prepared” for “protease type XXIII”, “200 mM” for “200mM”, “and” for “and evaporated under a stream of N2. The residue was reconstituted in 200 μl of acetonitrile and”

Molecule | ShexaP (4.2 min) [1] [%] | SheptaP's (8.9 min) [1] [%] | SheptaP's (9.4 min) [1] [%] | SheptaP's ([…]) [1] [%] | SOA [1] [%] | SheptaP's (8.3 min) [2] [%] | SheptaP's (8.9 min) [2] [%] | SheptaP's (9.9 min) [2] [%] | SOP [2] [%] | SOA [3] [%] | SheptaA [3] [%] | ShexaA [3] [%] | log P [7] | further results
CC(C)=O [acetone] | 0 | 0 | 0.1 | 1.2 | 98.7 | 0.7 | 0 | 0.2 | 99.1 | 98.6 | 1.4 | 0 |  | 
CCC(C)=O [butanone] | 0 | 0 | 0.2 | 0.9 | 98.9 | 1.0 | 0 | 0.2 | 98.8 |  |  |  |  | 
OC1CCCCC1 [cyclohexanol] |  |  |  |  |  |  |  |  |  | 96.8 | 2.9 | 0.3 |  | regiochem [4]: 8.0; % conv [5]: 25.0%; % conv ([6]; 66 hrs): 38.2%; regiochem ([6]; peak height ratio 1'-OH / 6'-OH heptaacetate): 3.9
CC1CCCO1 (stereo not drawn) [2-methyl THF, 2-methyltetrahydrofuran] |  |  |  |  |  |  |  |  |  | 96.2 | 3.8 | 0 | 1.0 | 
CC1(C)CCC(C)(C)O1 [2,2,5,5-tetramethyl THF, 2,2,5,5-tetramethyltetrahydrofuran] |  |  |  |  |  |  |  |  |  | 68.4 | 31.6 |  | 2.5 | 
bromelain |  |  |  |  |  |  |  |  |  |  |  |  |  | enzyme activity [8]: 22.9 U/mg; SheptaP's (9.6 min) ([9]; HPLC peak 9.6 min): 0.3; SheptaP's ([…]) ([9]; HPLC peak […]): 0.7; SOP ([9]; residual SOP): 99.0%
